According to ChEMBL document CHEMBL1155190, “Identification of a cell-active non-peptide sirtuin inhibitor containing N-thioacetyl lysine” (Bioorg Med Chem Lett, 2009):

Key:
[1] = target: T1, NAD-dependent protein deacetylase sirtuin-2 (Homo sapiens, UniProt Q8IXJ6); experiment: Inhibition of human recombinant SIRT2 after 60 mins by fluorimetric analysis
T1 sequence (Q8IXJ6 whole entry): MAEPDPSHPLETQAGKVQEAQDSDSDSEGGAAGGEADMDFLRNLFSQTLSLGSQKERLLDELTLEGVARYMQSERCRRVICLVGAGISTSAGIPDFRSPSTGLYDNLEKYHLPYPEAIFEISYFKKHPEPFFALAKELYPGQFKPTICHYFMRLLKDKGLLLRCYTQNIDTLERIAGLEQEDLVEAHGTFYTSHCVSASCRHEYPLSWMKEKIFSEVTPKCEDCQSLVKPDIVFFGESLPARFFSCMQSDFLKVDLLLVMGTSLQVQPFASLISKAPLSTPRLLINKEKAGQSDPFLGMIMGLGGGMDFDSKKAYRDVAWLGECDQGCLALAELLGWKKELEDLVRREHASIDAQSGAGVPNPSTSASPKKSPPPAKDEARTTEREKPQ

[2] = target: T2, NAD-dependent protein deacetylase sirtuin-3, mitochondrial (Homo sapiens, UniProt Q9NTG7); experiment: Inhibition of human recombinant SIRT3 after 60 mins by fluorimetric analysis
T2 sequence (Q9NTG7 whole entry): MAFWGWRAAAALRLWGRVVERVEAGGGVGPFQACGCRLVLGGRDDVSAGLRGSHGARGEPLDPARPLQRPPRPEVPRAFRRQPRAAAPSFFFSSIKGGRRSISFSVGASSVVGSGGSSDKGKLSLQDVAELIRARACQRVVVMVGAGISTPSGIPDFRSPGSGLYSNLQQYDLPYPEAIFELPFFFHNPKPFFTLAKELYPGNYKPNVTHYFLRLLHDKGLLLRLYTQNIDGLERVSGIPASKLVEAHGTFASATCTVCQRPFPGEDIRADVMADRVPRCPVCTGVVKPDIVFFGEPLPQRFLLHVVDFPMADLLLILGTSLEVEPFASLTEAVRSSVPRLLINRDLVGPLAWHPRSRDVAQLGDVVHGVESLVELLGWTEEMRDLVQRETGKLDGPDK

[3] = target: T3, NAD-dependent protein deacetylase sirtuin-1 (Homo sapiens, UniProt Q96EB6); experiment: Inhibition of human recombinant SIRT1 after 60 mins by fluorimetric analysis
T3 sequence (Q96EB6 whole entry): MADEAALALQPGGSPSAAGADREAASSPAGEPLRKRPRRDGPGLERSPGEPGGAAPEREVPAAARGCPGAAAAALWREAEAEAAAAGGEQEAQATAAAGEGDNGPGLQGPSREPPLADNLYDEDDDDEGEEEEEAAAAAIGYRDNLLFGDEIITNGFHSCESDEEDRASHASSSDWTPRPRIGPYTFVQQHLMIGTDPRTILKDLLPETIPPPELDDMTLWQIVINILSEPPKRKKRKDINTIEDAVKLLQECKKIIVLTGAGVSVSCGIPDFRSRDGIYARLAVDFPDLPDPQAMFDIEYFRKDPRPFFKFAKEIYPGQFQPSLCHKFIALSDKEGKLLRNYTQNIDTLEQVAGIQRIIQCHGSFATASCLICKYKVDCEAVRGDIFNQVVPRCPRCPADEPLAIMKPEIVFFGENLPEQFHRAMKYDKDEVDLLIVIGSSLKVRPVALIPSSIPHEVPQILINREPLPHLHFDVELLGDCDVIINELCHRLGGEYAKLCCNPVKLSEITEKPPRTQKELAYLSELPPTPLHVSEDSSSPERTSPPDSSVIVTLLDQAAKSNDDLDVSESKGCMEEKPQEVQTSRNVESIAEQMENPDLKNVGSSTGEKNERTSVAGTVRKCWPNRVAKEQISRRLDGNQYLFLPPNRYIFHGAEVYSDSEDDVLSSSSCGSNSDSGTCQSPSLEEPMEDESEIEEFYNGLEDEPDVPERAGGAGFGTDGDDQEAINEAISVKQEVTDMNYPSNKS

IC50 [1]: 23 µM | IC50 [2]: > 100 µM | IC50 [3]: 2.7 µM
SMILES: CC(=S)NCCCC[C@H](NC(=O)OCc1ccccc1)C(=O)Nc1ccccc1
